According to paper PMC4850295, “Using a Genetically Encoded Sensor to Identify Inhibitors of Toxoplasma gondii Ca^2+ Signaling” (The Journal of Biological Chemistry, 2016):

Each compound was assayed on T1, GCaMP5-expressing T. gondii. Conditions: 100 uM zaprinast stimulation, 10 min pretreatment, mean of two replicates, 0.23 h, 10 µM.
T1 construct: whole extracellular parasites expressing GCaMP5 Ca2+ sensor
Set-up: species or system GCaMP5-expressing Toxoplasma gondii, extracellular; GCaMP5 fluorescence (cytosolic Ca2+) after 100 uM zaprinast in compound-pretreated extracellular parasites, background-subtracted, relative to zaprinast alone
Procedure, shortened: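 Extracellular GCaMP5-expressing parasites in Ringer's solution were pretreated with compounds (single 10 μM dose, two biological replicates) for 10 min, then stimulated with 100 μM zaprinast at 37 °C for 4 min. Fluorescence read at 485/525 nm, basal subtracted, expressed as fold change relative to zaprinast-only parasites.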

Row | SMILES | fold change in fluorescence relative to zaprinast alone
1 | Nc1ncnc2occ(-c3ccc(NC(=O)Nc4cc(C(F)(F)F)ccc4F)cc3)c12 [GW770249A] | 0.2788

Same assay, conditions: 100 uM zaprinast stimulation; 10 min pretreatment; mean of two replicates; 0.23 h

Row | SMILES | fold change in fluorescence relative to zaprinast alone
2 | COC(=O)Nc1nc2cc(Oc3ccc(NC(=O)Nc4ccccc4)cc3)ccc2[nH]1 [GW694590A] | 1.127
3 | c1ccc(-c2n[nH]cc2-c2ccnc(-c3ccc(OCCN4CCOCC4)cc3)c2)nc1 [GW695874X] | 1.104
4 | CC(C)Oc1ccc2c(-c3ccnc(Nc4ccc(N5CCN(C)CC5)cc4)n3)cnn2n1 [GW696155X] | 0.6015
5 | COC(=O)Nc1nc2ccc(Oc3ccc(NC(=O)Nc4cc(C(F)(F)F)ccc4Cl)cc3)cc2[nH]1 [GW697465A] | 0.849
6 | COC(=O)Nc1nc2ccc(Oc3ccc(NC(=O)Nc4cccc(SC)c4)cc3)cc2[nH]1 [GW697999A] | 1.427
7 | COc1ccc(CNC(=O)c2ccc(-c3cc(-c4nnc(C)o4)ccc3C)cc2)cc1 [GW701032X] | 1.056
8 | COC(=O)Nc1nc2ccc(Oc3ccc(NC(=O)Nc4cc(F)ccc4F)cc3)cc2[nH]1 [GW701424A] | 1.084
9 | COC(=O)Nc1nc2cc(Oc3ccc(NC(=O)Nc4cccc(C(=O)O)c4)cc3)ccc2[nH]1 [GW701427A] | 1.188
10 | Cc1nnc(-c2ccc(C)c(-c3ccc(C(=O)Nc4ccc(NS(C)(=O)=O)cc4)cc3)c2)o1 [GW702865X] | 1.258
11 | CC(=O)Nc1cccc(C#Cc2cncnc2Nc2ccc(OCc3cccc(F)c3)c(Cl)c2)c1 [GW703087X] | 1.104
12 | Fc1cccc(COc2ccc(Nc3ncnc4sc(-c5ccc[nH]5)cc34)cc2Cl)c1 [GW707818B] | 0.2741
13 | c1cc(-c2cnn3nc(N4CCOCC4)ccc23)nc(NC2CC2)n1 [GW708336X] | 0.6756
14 | Cc1nnc(-c2ccc(C)c(-c3ccc(C(=O)NCc4ccc(Cl)cc4)cc3)c2)o1 [GW708893X] | 1.038
15 | O=C(Nc1ccc(Oc2ccc3[nH]c(NC(=O)c4ccccc4)nc3c2)cc1)Nc1cc(C(F)(F)F)ccc1F [GW709042A] | 1.07
16 | FC(F)(F)c1ccc(/C=C/c2cncnc2Nc2ccc3nc(Cc4ccccc4)[nH]c3c2)cc1 [GW709199X] | 1.132
17 | c1ccc(-c2[nH]ncc2-c2ccnc(-c3ccc(CNC4CCOCC4)cc3)c2)nc1 [GW709213X] | 1.08
18 | c1ccc(-c2n[nH]cc2-c2ccnc(-c3ccc(OCCn4ccnc4)cc3)c2)nc1 [GW711782X] | 1.163
19 | Cc1ccc(NC(=O)c2ccoc2)cc1-c1ccc(C(=O)NCC2CC2)cc1 [GW743024X] | 1.222
20 | NC(=O)c1cccc(Nc2nccc(Nc3cccc(F)c3)n2)c1 [GW759710A] | 1.166
21 | CN(C)CC(O)COc1ccc(Nc2nccc(-c3cnn4nc(N5CCOCC5)ccc34)n2)cc1 (stereo not drawn) [GW767488X] | 0.9765
22 | CN1CCN(CCNc2nc3ccc(Oc4ccc(NC(=O)Nc5cc(C(F)(F)F)ccc5F)cc4)cc3[nH]2)CC1 [GW768504A] | 0.9512
23 | Cc1ccc(NC(=O)c2ccnc(N3CCCC3)c2)cc1-c1ccc(C(=O)NCC2CC2)cc1 [GW769076X] | 1.128
24 | Cc1c2ccc(N(C)c3ccnc(Nc4cccc(S(N)(=O)=O)c4)n3)cc2nn1C [GW771127A] | 1.211
25 | Cc1ccc(NC(=O)c2ccnc(N3CCN(C)CC3)c2)cc1-c1ccc(C(=O)NCC2CC2)cc1 [GW775604X] | 1.197
26 | Cc1ccc(NC(=O)c2ccnc(N3CCCCC3)c2)cc1-c1ccc(C(=O)NCC2CC2)cc1 [GW775610X] | 1.448

Row | SMILES | fold change in fluorescence relative to zaprinast alone
27 | c1ccc(-c2[nH]ncc2-c2ccnc(-c3ccc(CN4CCOCC4)cc3)c2)nc1 [GW776245A] | 1.036
28 | Cc1ccnc2ccc(-c3sc(N)nc3-c3ccccn3)nc12 [GW777257X] | 1.011
29 | N#Cc1cccc(Nc2nccc(-c3cnn4ncccc34)n2)c1 [GW778894X] | 0.1658
30 | CCN(CC)Cc1ccc(Nc2nccc(-c3cnn4ncccc34)n2)cc1 [GW780056X] | 0.8961
31 | C=CC(=O)Nc1cc2c(Nc3ccc(F)c(Cl)c3)ncnc2cc1OCCCN1CCOCC1 [GW781483X] | 1.29
32 | Clc1ccc(CNc2nccc(-c3cnn4ncccc34)n2)cc1 [GW781673X] | 0.7156
33 | NC(=O)c1cccc(Nc2nccc(Nc3cccc4[nH]ncc34)n2)c1 [GW782612X] | 1.061
34 | Cc1ccc(C(=O)NC2CCCCC2)cc1-c1ccc(C(=O)NCC2CC2)cc1 [GW782907X] | 1.25
35 | Cc1ccc(C(=O)NC2CCC2)cc1-c1ccc(C(=O)NCC2CC2)cc1 [GW782912X] | 1.104
36 | COc1ccc(C)c(Nc2ccnc(Nc3ccc(-c4cnc[nH]4)cc3)n2)c1 [GW784041A] | 1.009
37 | COc1cccc(-n2ncc3c(N/N=C/c4ccc(C(=O)NCCN(C)C)cc4)ncnc32)c1 [GW784307A] | 0.4737
38 | COc1cccc(-n2ncc3c(N/N=C/c4ccncc4)ncnc32)c1 [GW784752X] | 1.109
39 | Nc1nc(-c2ccc(F)cc2)c(-c2ccc3ncccc3n2)s1 [GW785804X] | 1.356
40 | Cc1ccc(C(=O)NC(C)C)cc1-c1ccc(C(=O)NCC2CC2)cc1 [GW785974X] | 1.119
41 | Cc1cccc(-c2n[nH]cc2-c2ccc3ncccc3n2)n1 [GW786460X] | 1.226
42 | Cc1c2ccc(N(C)c3ccnc(Nc4cccc(S(N)(=O)=O)c4)n3)cc2nn1Cc1ccccc1 [GW787226A] | 1.348
43 | CCCNc1cccc(-n2ncc3c(N/N=C/c4ccncc4)ncnc32)c1 [GW794607X] | 0.688
44 | Nc1ncnc2occ(-c3ccc(NC(=O)Nc4cc(C(F)(F)F)cc(C(F)(F)F)c4)cc3)c12 [GW795486X] | 0.08819
45 | Cc1ccc(NC(=O)CC2CC2)cc1-c1ccc(C(=O)NCC2CC2)cc1 [GW796920X] | 1.231
46 | Nc1nccc(C#Cc2cncnc2Nc2ccc(OCc3cccc(F)c3)c(Cl)c2)n1 [GW799251X] | 1.079
47 | Cc1ccc(C(=O)NC2CCCC2)cc1-c1ccc(C(=O)NCC2CC2)cc1 [GW800172X] | 1.109
48 | COc1cc(Nc2nccc(-c3cnn4ncccc34)n2)cc(OC)c1 [GW801372X] | 0.4013
49 | COc1cccc(COc2cc(-n3cnc4ccccc43)sc2C(N)=O)c1 [GW804482X] | 1.105
50 | CC(C)c1ccc(Nc2nccc(-c3cnn4ncccc34)n2)cc1 [GW805758X] | 0.2516
51 | c1cnn2ncc(-c3ccnc(Nc4ccc5c(c4)OCCO5)n3)c2c1 [GW806290X] | -0.04929
